Reference: US20230248653A1, “ELECTROSPRAYED AND ELECTROSPUN CANNABINOID COMPOSITIONS AND PROCESS TO PRODUCE” (priority 2019, published 2023)

Assay: Solubility of CBD in water, HFIP and acetic acid-water solutions
Format: physicochemical
Text: Fast dissolving particles were produced using edible gelatin nanoscale particles created from acetic acid-water based solutions. A solution was created, and the electrospray process was repeated to see if reproducible results were obtainable.
In order to create CBD particles in a gelatin-based solution, the solubility of CBD in different acetic acid-water based solutions was explored.

SMILES: C=C(C)[C@@H]1CCC(C)=C[C@H]1c1c(O)cc(CCCCC)cc1O [CBD, Cannabidiol]
- solubility in acetic acid-water solution (30% v/v AA(aq.)): Emulsions were formed
- solubility in acetic acid-water solution (40% v/v AA(aq.)): Emulsions were formed
- solubility in acetic acid-water solution (50% v/v AA(aq.) and higher concentrations): clear, homogeneous and well mixed soluble CBD solution
- solubility in HFIP (HFIP): soluble
- solubility in water (water): not able to dissolve in water
